According to patent US20130302889A1, “Differentiation of Bone Marrow Cells into Neuronal Cells and Uses Therefor” (Philadelphia Health and Education Corporation, priority 2002, published 2013):
Entries after “also recorded” stand apart in the source; their conditions may differ.

How the values were obtained:
rMSCs [1] = test: Neuronal differentiation of rMSCs (morphology); assay type: cell-based, rat; conditions: for neuronal morphologies elicited by anti-oxidant treatment: alone and in combination, time course similar to BME
Description: Rat MSCs were originally cultured in alpha-Modified Eagle's Medium (alpha-MEM) supplemented with 20% FBS, 2 mM L-glutamine, 100 units per milliliter penicillin, […] streptomycin and 25 nanogramps per milliliter amphotericin B. For each passage the cells were plated at about 8,000 cells per square centimeter and grown to confluency. At passage 6 the cells were transferred to DMEM (pH 8.0)/20% FBS without additional supplementation, and maintained beyond passage 14. The rat MSCs were obtained with a protocol and procedures approved by the Institutional IACUC. The human samples were obtained from volunteers with informed consent and according to a protocol approved by the Institutional Review Board.
To induce the neuronal phenotype, rMSCs were initially maintained in sub-confluent cultures in media supplemented with 1 mM beta-mercaptoethanol (BME) for 24 hours. […] To effect neuronal differentiation, the cells were transferred to serum-free medium containing 1-10 millimolar BME (SFM/BME). […] Within 60 minutes of exposure to SFM/BME changes in morphology of some of the rMSCs were apparent (FIG. 2C). Responsive cells progressively assumed neuronal morphological characteristics over the first 3 hours. Initially, cytoplasm in the flat rMSCs retracted towards the nucleus, forming a contracted multipolar, cell body, leaving membranous, process-like extensions peripherally (0-90 minutes).
To begin examining the hypothesis that the anti-oxidant properties of BME mediated induction of neuronal differentiation in MSCs, rMSCs were treated with other anti-oxidants, e.g., dimethylsulfoxide (DMSO), butylated hydroxyanisole (BHA), or butylated hydroxytoluene (BHT), ascorbic acid, dimethylfumarate, n-acetylcysteine, and the like, both alone and in combination with each other.

rMSC clones = test: Differentiation of clonal rMSC lines; assay type: cell-based, rat; conditions: after BME treatment
Description: To establish clones, rMSCs were plated at approximately 10 cells per square centimeters, grown to 50-150 cells per colony, isolated with cloning cylinders, transferred to separate wells and eventually to individual flasks.

rMSCs [2] = test: Immunocytochemistry for neuronal markers in treated rMSCs; assay type: cell-based, rat
Description: Cultured rMSCs were fixed with 4% paraformaldehyde, incubated with primary antibody overnight at 4° C., incubated with secondary antibody for one hour, followed by exposure to avidin-biotin complex for one hour at 25° C. Diaminobenzidene (DAB) served as chromogenic substrate for HRP.
To further characterize potential neuronal differentiation, BME-treated cultures were stained to detect expression of the neuronal marker neuron-specific enolase (NSE). Unresponsive, flat rMSCs expressed very low, but detectable, levels of NSE protein, consistent with previous detection of minute amounts of protein and/or message in cells of bone marrow origin (Pechumer et al., 1993, Lab. Invest. 89:743-749; Reid et al., 1991, Clin. Pathol. 44:483-486; vanObberghen et al., 1988, J. Neurosci. Res. 19:450-456).

rMSCs [3] = test: Western blot for NSE in rMSC cultures; assay type: cell-based, rat; conditions: 5 hours post BME treatment, versus uninduced rMSCs
Description: […] of protein extract from untreated (U) and BME-induced (I) rMSC cultures was separated on a 4%-20% gradient acrylamide gel and electrophoretically transferred to a nylon membrane. The Western blot was probed for tubulin, expression using an anti-tubulin monoclonal antibody (Sigma Chemical Co., St. Louis, Mo.) followed by secondary antibody conjugated with horse radish peroxidase (HRP). Color development was performed using enhanced chemiluminescence reagents (Amersham, Piscataway, N.J.). The blot was then stripped and probed for NSE expression using anti-NSE polyclonal antibody (ICN). Again, the secondary antibodies were HRP-conjugated, and color was developed using ECL reagents, […]

hMSCs = test: Neuronal differentiation of human MSCs; assay type: cell-based
Description: Cells from passage two were subjected to the neuronal differentiation protocol and stained for NSE or NF-M expression. […] Contracted cell bodies elaborated processes and stained strongly for NSE expression within 3 hours (FIGS. 8A and 8B). Transitional cells were also evident ( ? ). […] Growth cone morphologies with filopodial extensions ( ? ) were clearly evident on the processes elaborated by paired neurons depicted in the image in FIG. 8C.

## COc1ccc(O)c(C(C)(C)C)c1 [BHA, butylated hydroxyanisole]
rMSCs [1]
  neuronal morphologies elicited by anti-oxidant treatment: elicited neuronal morphologies

## Cc1cc(C(C)(C)C)c(O)c(C(C)(C)C)c1 [BHT, butylated hydroxytoluene]
rMSCs [1]
  neuronal morphologies elicited by anti-oxidant treatment: elicited neuronal morphologies

## OCCS [BME, beta-mercaptoethanol]
rMSC clones
  generation of NSE-positive neurons from single-cell clones: differentiated into NSE-positive neurons; also recorded: generated refractile, process-bearing, NSE-positive cells
rMSCs [2]; BME-treated cultures
  NSE expression (immunostaining): increased expression of NSE
rMSCs [2]; after treatment
  time to increased expression of neuronal marker NSE: ≤ 30 min
rMSCs [2]; cells exhibiting neuronal morphologies
  NF-M expression (immunostaining): increased expression of NF-M
rMSCs [2]; differentiated cultures
  NeuN expression (immunostaining): stained for NeuN expression
rMSCs [1]; SFM with 1-10 millimolar BME, effect of concentration
  percentage of cells adopting a neuronal morphology: increased at higher BME concentrations
rMSCs [1]; effect of BME pretreatment
  percentage of cells adopting a neuronal morphology: enhanced by BME pretreatment
rMSCs [1]; serum-free medium containing 1-10 millimolar BME (SFM/BME)
  time to apparent changes in morphology: ≤ 60 minutes
rMSCs [1]; sub-confluent cultures, media supplemented with 1 mM BME for 24 hours
  changes in morphology: no changes in morphology were evident
rMSCs [3]
  NSE expression (Western blot): significant increase in NSE expression
hMSCs; hMSC-derived neurons
  NF-M expression: expressed NF-M
hMSCs; hMSCs passage two, after BME treatment
  neuronal characteristics and NSE expression: attained neuronal characterises and increased NSE expression
hMSCs; hMSCs, BME treatment
  time to strong NSE staining: ≤ 3 h

## C[S+](C)[O-] [DMSO, dimethylsulfoxide]
rMSCs [1]
  neuronal morphologies elicited by anti-oxidant treatment: elicited neuronal morphologies

## O=C1O[C@H]([C@@H](O)CO)C(O)=C1O [ascorbic acid]
rMSCs [1]
  neuronal morphologies elicited by anti-oxidant treatment: elicited neuronal morphologies

## CC(=O)N[C@@H](CS)C(=O)O [n-acetylcysteine]
rMSCs [1]
  neuronal morphologies elicited by anti-oxidant treatment: elicited neuronal morphologies
